From patent publication US10197579B2, “Methods for measurement of inhibition of c-Jun N-terminal kinase in skin” (Signal Pharmaceuticals, LLC, priority 2014, dated 2019)

System: phosphorylation of c-Jun at Ser63 in HEKa cells
Experiment: UVB-induced c-Jun Ser63 phosphorylation in HEKa keratinocytes (Western immunoblotting)
Type: cell-based, Human
Conditions: HEKa cells from four donors; 50 mJ/cm^2 UVB; Compound 1 added 1 hour before and kept 30 minutes after irradiation; nuclear extract, Western blot (FIGS. 1-5)
Experimental: Adult Normal Human […] Keratinocytes (HEKa) were obtained from ScienCell. Cells were plated in 10 cm dishes and incubated to allow attachment and then serum starved overnight. Compound 1 was added 1 hour before the cells were irradiated with 50 mJ/cm^2 UVB. Cells were incubated with Compound 1 for an additional 30 minutes after UVB irradiation. Cells were then lysed and nuclear and cytoplasmic proteins were isolated using the Nuclear Extraction kit by Active Motif. Protein was run on 10% tris glycine gels and transferred to nitrocellulose membranes. Blots were blocked for 1 hour. Total and phosphorylated c-Jun primary antibodies were added and incubated overnight. Licor secondary antibodies were added and blots were read on the Li-Cor Odyssey. 1-5. There was increased phosphorylation of c-Jun at Ser63 with 50 mJ/cm^2 UVB radiation, and inhibition by Compound 1 (FIGS. 1-5). There was also good separation of the nuclear and cytoplasmic proteins (c-Jun is only in the nucleus) (FIGS. 1-4).

With `C[C@@H]1CC[C@@H](Nc2nc(NC(C)(C)C)ncc2C(N)=O)C[C@H]1O` [Compound 1, 2-(tert-butylamino)-4-((1R,3R,4R)-3-hydroxy-4-methylcyclohexylamino)-pyrimidine-5-carboxamide] the “inhibition of phosphorylation of c-Jun at Ser63 induced by UVB radiation” value was “inhibits c-Jun phosphorylation at Ser63 in a dose dependent manor”.
